These results are taken from ChEMBL document CHEMBL1158462, “Recent advances in the development of polyamine analogues as antitumor agents” (J Med Chem, 2009).

Assay [1] relates to NCI-H69. In words: Antitumor activity against human H69 cells. In kind it is functional, cell-based.
Assay [2] concerns A549. In words: Antitumor activity against human A549 cells xenografted nu/nu Fox Chase mouse assessed as reduction in tumor growth at 125 mg/kg. In kind it is functional. Further details: scale not given: the % may be the effect or the level left.
The test system of assay [3] is NCI-H157. In words: Antitumor activity against human NCI-H157 cells by MTT assay. In kind it is functional, cell-based.
Assay [4] has as its system A549. The assay is described as follows: Antitumor activity against human A549 cells. In kind it is functional, cell-based.
Assay [5] relates to A549. In words: Antitumor activity against human A549 cells xenografted nu/nu Fox Chase mouse assessed as reduction in tumor growth at 75 mg/kg. In kind it is functional. Details: scale not given: the % may be the effect or the level left.
Assay [6] can be described thus: Antitumor activity against human H82 cells. In kind it is functional, cell-based. Conditions: NCI-H82.
The test system of assay [7] is MCF7. The assay is described as follows: cells. In kind it is functional, cell-based. The settings on record: Homo sapiens.
Description: Antitumor activity against human MCF7 cells
Assay [8] deals with ZR-75-1. The assay is described as follows: Antitumor activity against human ZR-75-1 cells. In kind it is functional, cell-based.
Assay [9] in a line: Antitumor activity against human Hs 578T cells. In kind it is functional, cell-based.
The test system of assay [10] is T47D. The assay is described as follows: Antitumor activity against human T47D cells. In kind it is functional, cell-based.
The test system of assay [11] is MDA-MB-468. In words: Antitumor activity against human MDA-MB-468 cells. In kind it is functional, cell-based.
The subject of assay [12] is RKO. In words: Induction of H3K4me2 expression in human RKO cells at 1 uM. In kind it is functional.
In assay [13] the target is Lysine-specific histone demethylase 1A (Homo sapiens) (UniProt O60341). Conditions: 1 uM.
Description: Inhibition of LSD1 at 1 uM
In assay [14] the test system is RKO. In words: Induction of SFRP5 expression in human RKO cells at 1 uM. In kind it is functional.
The subject of assay [15] is RKO. In words: Induction of SFRP4 expression in human RKO cells at 1 uM. In kind it is functional.

Take `CCNCCCNCCCNCCCNC[C@H](C)CO`: the IC50 was 700 nM in assay [1], 2200 nM in assay [3], 700 nM in assay [4] and 700 nM in assay [6]. In addition, the Activity in [2] and in assay [5] was 65% throughout.
Consider `CCNCCCNCCCNCCCNCC1CC1`, for which the IC50 in assay [7], in assay [8], in assay [9], in assay [10], in assay [3] and in [11] was 200 nM throughout.
Regarding `N=C(NCCCNCCCCCCCNCCCNC(=N)NC(=N)NCCC(c1ccccc1)c1ccccc1)NC(=N)NCCC(c1ccccc1)c1ccccc1`, the Activity in [12], in assay [14] and in assay [15] was 20% throughout. In [13], the inhibition was determined as 90.9%.
